Values quoted from earlier work, collected in patent US20220257548A1, “ORAL COMBINATION DRUG FORMULATION COMPRISING A NON-STEROIDAL ANTI-INFLAMMATORY DRUG AND A COMPLEMENTARY LOW DOSE OF TRANEXAMIC ACID FOR THE TREATMENT OF MENSTRUAL PAIN ACCOMPANIED WITH EXCESSIVE MENSTRUAL BLOOD LOSS” (ARSTAT, INC, priority 2011, published 2022).
Where two headings read alike, the source gives them in different places.

Legend:
[1] = tested on: menstrual blood loss (MBL) in women
[2] = 6 g/day
[3] = tested on: menstrual blood loss (MBL) in women with menorrhagia; conditions: for mean percent change in MBL: Lysteda clinical study

For O=C(O)Cc1ccccc1Nc1c(Cl)cccc1Cl [diclofenac sodium], the “reduction in MBL” value ([1]; 50 mg four times daily on Day 1 and three times on the following four days of the menstrual period) is listed as 24%.
For CC(C)Cc1ccc(C(C)C(=O)O)cc1 (centres unmarked) [ibuprofen], the “reduction in MBL” value ([1]; 200 mg administered three times daily) is listed as 16% and the “reduction in MBL” value ([1]; 400 mg administered four times daily) is listed as 32%.
In the case of Cc1cccc(Nc2ccccc2C(=O)O)c1C [mefenamic acid], the “reduction in MBL” value ([1]; 500 mg three times daily during the menstrual period, women clinically diagnosed with menorrhagia (baseline MBL>80 mL)) is given as 30% and the “reduction in MBL” value ([1]; 500 mg three times daily during the menstrual period, women with no clinical diagnosis of menorrhagia (baseline MBL<80 mL)) is given as 19%.
For NC[C@H]1CC[C@H](C(=O)O)CC1 [tranexamic acid], the “risk of gastrointestinal adverse events” value [2] is given as “increased”, the “limitations on social, leisure and physical activities” value ([3]; 3900 mg/day regimen) is given as “significantly reduces” and the “difference versus placebo in reduction of large stains, small and large clots and changes in serum ferritin levels” value ([3]; Lysteda NDA medical review) is given as “no statistically significant differences”. The “subjects returned to normal MBL after treatment (mean on-treatment MBL of less than 80 mL)” value ([3]; Lysteda NDA medical review) was 44%, the “mean percent change in MBL” value ([3]; oral tranexamic acid 1950 mg/day regimen) was “approximately 25%” and the “mean percent change in MBL” value ([3]; oral tranexamic acid 3900 mg/day dose) was 39%.
